Data from patent publication US12503438B2, “Compounds for the treatment of kinase-dependent disorders” (Exelixis, Inc., priority 2019, dated 2025).

Key:
Met = Met (Homo sapiens, UniProt P08581); assay: Human Met kinase assay (33P-phosphoryl transfer radiometric, KinaseProfiler); set-up: Human Met (residues R974-S1390 with A1209G and V1290L, 3.4 nM); purchased Eurofins Pharma Discovery Services UK Limited (KinaseProfiler service); conditions: biochemical activity; 10 μM ATP; read-out: c-Met IC50
Chain of Met (P08581 974-1390): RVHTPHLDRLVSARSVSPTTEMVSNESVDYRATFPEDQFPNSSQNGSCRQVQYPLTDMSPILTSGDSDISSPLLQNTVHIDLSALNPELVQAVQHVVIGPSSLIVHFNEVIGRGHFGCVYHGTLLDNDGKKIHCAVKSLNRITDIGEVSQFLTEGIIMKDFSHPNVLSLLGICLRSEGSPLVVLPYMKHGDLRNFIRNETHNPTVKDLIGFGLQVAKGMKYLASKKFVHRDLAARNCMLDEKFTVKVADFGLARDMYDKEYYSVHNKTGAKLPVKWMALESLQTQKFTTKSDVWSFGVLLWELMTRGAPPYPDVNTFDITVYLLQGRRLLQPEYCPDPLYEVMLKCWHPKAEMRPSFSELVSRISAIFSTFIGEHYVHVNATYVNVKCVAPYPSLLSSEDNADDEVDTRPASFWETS
Method: Kinase activity and compound inhibition were investigated using the ^33P-Phosphoryl transfer radiometric kinase assay, performed using the KinaseProfiler™ service of Eurofins Pharma Discovery Services UK Limited. Dose-response experiments were performed using nine compound concentrations in a 96-well microtiter plate. For each assay, all compounds were prepared to a 50× final assay concentration (50 μM) in 100% DMSO, then diluted in a half-log series, with the final top concentration at 1 μM. This working stock of the compound was added to the assay well as the first component in the reaction, followed by the remaining components as detailed in the following assay protocols below. The positive control wells (100% kinase activity) contain all components of the reaction including 2% DMSO (control for solvent effects), except the compound of interest. Blank wells contain all components of the reaction, with the reference inhibitor, staurosporine. This reference compound was used to abolish kinase activity and generated the 0% kinase activity base-line. IC50 values were calculated by nonlinear regression analysis using the sigmoidal dose-response (variable slope) curve fit on XLFit version 5.3 (ID Business Solutions).
Human Met (residues R974-S1390 with A1209G and V1290L, 3.4 nM) was incubated with 8 mM MOPS pH 7.0, 0.2 mM EDTA, 250 μM KKKGQEEEYVFIE, 1 mM sodium orthovanadate, 5 mM […], 10 mM magnesium acetate, and 10 μM [γ-^33P-ATP]. The reaction was initiated by the addition of the Mg/ATP mix. After incubation for 40 minutes at room temperature, the reaction was stopped by the addition of phosphoric acid to a concentration of 0.5%. A reaction aliquot of 10 μL was then spotted onto a P30 filtermat and washed four times for 4 minutes in 0.425% phosphoric acid and once in methanol prior to drying and scintillation counting. Incorporated ^33P was measured using the Wallac Microbeta scintillation counter (Perkin Elmer).

Mer = biological target: T1, Mer (Homo sapiens, UniProt Q12866); assay: Mer autophosphorylation ELISA in transient transfected 293A cells; format: cell-based; conditions: cellular activity; MERTK-transfected 293A cells, phospho-Mer ELISA
T1 construct: host or cells: 293A cells (Thermo Fisher #R70507)
T1 sequence (Q12866 21-999): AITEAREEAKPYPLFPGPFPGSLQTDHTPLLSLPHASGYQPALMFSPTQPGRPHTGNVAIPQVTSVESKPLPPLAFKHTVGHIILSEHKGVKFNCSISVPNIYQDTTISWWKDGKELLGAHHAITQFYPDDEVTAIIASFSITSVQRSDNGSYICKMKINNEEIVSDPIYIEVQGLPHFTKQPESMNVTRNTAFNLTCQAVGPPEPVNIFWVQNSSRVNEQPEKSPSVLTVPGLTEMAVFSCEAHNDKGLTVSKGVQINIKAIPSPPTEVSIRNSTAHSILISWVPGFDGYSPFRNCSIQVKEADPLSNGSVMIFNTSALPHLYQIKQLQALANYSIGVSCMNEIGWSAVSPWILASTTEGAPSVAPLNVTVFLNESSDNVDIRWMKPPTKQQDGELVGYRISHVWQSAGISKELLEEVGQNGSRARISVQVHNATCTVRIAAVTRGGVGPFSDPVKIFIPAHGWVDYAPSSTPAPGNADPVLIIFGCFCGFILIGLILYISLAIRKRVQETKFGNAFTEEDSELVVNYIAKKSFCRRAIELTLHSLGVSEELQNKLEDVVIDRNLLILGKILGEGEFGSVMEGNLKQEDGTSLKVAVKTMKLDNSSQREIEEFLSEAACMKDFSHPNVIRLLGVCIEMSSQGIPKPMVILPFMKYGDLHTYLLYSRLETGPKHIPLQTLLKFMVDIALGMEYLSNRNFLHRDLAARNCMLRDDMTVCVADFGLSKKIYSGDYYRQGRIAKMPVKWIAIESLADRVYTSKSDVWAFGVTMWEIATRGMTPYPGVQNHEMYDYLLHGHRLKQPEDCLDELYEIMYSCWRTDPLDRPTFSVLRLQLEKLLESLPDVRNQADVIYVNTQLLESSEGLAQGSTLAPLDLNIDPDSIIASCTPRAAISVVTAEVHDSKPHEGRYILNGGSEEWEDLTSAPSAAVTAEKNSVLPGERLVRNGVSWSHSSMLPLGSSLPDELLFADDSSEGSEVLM
Method: 293A cells (Thermo Fisher #R70507) were seeded at 1.5×10^6 cells/well onto 100 mm dish (Greiner #664169), in DMEM (Thermo Fisher #11995-040) containing 10% FBS (Thermo Fisher #26140-079), 1% MEM NEAA (Thermo Fisher #11140-050), 1% GlutaMax (Thermo Fisher #35050-061), and 1% Penicillin Streptomycin (Thermo Fisher #15140-122). 293A cells were incubated at 37° C., 5% CO2 for 24 h and then transfected with 6 μg MERTK DNA (Genecopoeia #EX-Z8208-M02) using TransIT LT1 transfection reagent (Mirus-Bio #MIR2305). After 24 h incubation, the transfected 293A cells were seeded at 1×10^5 cells/well onto 96-well plates (Corning #3904) in DMEM growth medium overnight. Test compounds were serially diluted to produce an 8-point dose curve in fresh serum-free medium to a final concentration of 0.3% DMSO (vehicle) and added to the cells and incubated for 1 h. Cells were then immediately lysed with 150 μL of cold 1× lysis buffer [20 mM Tris, 137 mM sodium chloride, 2 mM EDTA, 10% glycerol, 1% NP-40 alternative, 1 mM activated sodium orthovanadate, 1 mM PefaBloc SC (Sigma-Aldrich #11429868001), protease/phosphatase inhibitor tablet (Thermo Fisher #A32959)]. Lysates were clarified by centrifugation and 50 μL/well added into the human phospho-Mer DuoSet IC ELISA (R&D Systems #DYC2579-2). Assay was performed according to manufacturer's instructions and sample phospho-Mer concentrations were extrapolated using human phospho-Mer control (R&D Systems #841793) as a standard. Positive control wells (100% activity) contained DMSO-treated cell lysates. Negative control wells (0% activity) contained reference inhibitor-treated cell lysates. IC50 values were calculated by nonlinear regression analysis using a 4-parameter logistic curve fit in ActivityBase XE (IDBS).

Structure (SMILES) | IC50 (Met) [nM] | IC50 (Mer) [nM]
O=C(Nc1ccc(F)cc1)C1(C(=O)Nc2ccc(Oc3ccnc4cc(-c5cnc6[nH]ncc6c5)ccc34)cc2)CC1 [Compound 39, 1-N′-(4-Fluorophenyl)-1-N-[4-[7-(1H-pyrazolo[3,4-b]pyridin-5-yl)quinolin-4-yl]oxyphenyl]cyclopropane-1,1-dicarboxamide] | – | 10 to 100
Cc1cncc(-c2ccc3c(Oc4ccc(NC(=O)C5(C(=O)Nc6ccc(F)cc6)CC5)cc4)ccnc3c2)c1 [Compound 46, 1-N′-(4-Fluorophenyl)-1-N-[4-[7-(5-methylpyridin-3-yl)quinolin-4-yl]oxyphenyl]cyclopropane-1,1-dicarboxamide] | – | 100 to 300
Cc1noc(C)c1-c1ccc2c(Oc3ccc(NC(=O)C4(C(=O)Nc5ccc(F)cc5)CC4)cc3)ccnc2c1 [Compound 53, 1-N-[4-[7-(3,5-Dimethyl-1,2-oxazol-4-yl)quinolin-4-yl]oxyphenyl]-1-N′-(4-fluorophenyl)cyclopropane-1,1-dicarboxamide] | 10 to 100 | –
Cc1cc(-c2ccc3c(Oc4ccc(NC(=O)C5(C(=O)Nc6ccc(F)cc6)CC5)cc4)ccnc3c2)ccn1 [Compound 30, 1-N′-(4-Fluorophenyl)-1-N-[4-[7-(2-methylpyridin-4-yl)quinolin-4-yl]oxyphenyl]cyclopropane-1,1-dicarboxamide] | – | 10 to 100
N#Cc1ccc(-c2ccc3c(Oc4ccc(NC(=O)C5(C(=O)Nc6ccc(F)cc6)CC5)cc4)ccnc3c2)cn1 [Compound 42, 1-N-[4-[7-(6-Cyanopyridin-3-yl)quinolin-4-yl]oxyphenyl]-1-N′-(4-fluorophenyl)cyclopropane-1,1-dicarboxamide] | – | 10 to 100
O=C(Nc1ccc(F)cc1)C1(C(=O)Nc2ccc(Oc3ccnc4cc(-c5cccnc5O)ccc34)cc2)CC1 [Compound 52, 1-N′-(4-Fluorophenyl)-1-N-[4-[7-(2-hydroxypyridin-3-yl)quinolin-4-yl]oxyphenyl]cyclopropane-1,1-dicarboxamide] | – | 100 to 300
Nc1ccc(-c2ccc3c(Oc4ccc(NC(=O)C5(C(=O)Nc6ccc(F)cc6)CC5)cc4)ccnc3c2)cn1 [Compound 38, 1-N-[4-[7-(6-Aminopyridin-3-yl)quinolin-4-yl]oxyphenyl]-1-N′-(4-fluorophenyl)cyclopropane-1,1-dicarboxamide] | – | 10 to 100
O=C(Nc1ccc(F)cc1)C1(C(=O)Nc2ccc(Oc3ccnc4cc(-c5ccc(O)nc5)ccc34)cc2)CC1 [Compound 51, 1-N′-(4-Fluorophenyl)-1-N-[4-[7-(6-hydroxypyridin-3-yl)quinolin-4-yl]oxyphenyl]cyclopropane-1,1-dicarboxamide] | – | 10 to 100

Second part, the compound after the results:

IC50 (Met) [nM] | IC50 (Mer) [nM] | Structure (SMILES)
≤ 10 | ≤ 10 | COc1cc2c(Oc3ccc(NC(=O)C4(C(=O)Nc5ccc(F)cc5)CC4)cc3)ccnc2cc1-c1cnn(C)c1 [Compound 76, 1-N′-(4-Fluorophenyl)-1-N-[4-[6-methoxy-7-(1-methylpyrazol-4-yl)quinolin-4-yl]oxyphenyl]cyclopropane-1,1-dicarboxamide]
≤ 10 | 10 to 100 | Cn1ccnc1-c1ccc2c(Oc3ccc(NC(=O)C4(C(=O)Nc5ccc(F)cc5)CC4)cc3)ccnc2c1 [Compound 75, 1-N′-(4-Fluorophenyl)-1-N-[4-[7-(1-methylimidazol-2-yl)quinolin-4-yl]oxyphenyl]cyclopropane-1,1-dicarboxamide]
≤ 10 | – | C#Cc1ccc2c(Oc3ccc(NC(=O)C4(C(=O)Nc5ccc(F)cc5)CC4)cc3)ccnc2c1 [Compound 64, 1-N-[4-(7-Ethynylquinolin-4-yl)oxyphenyl]-1-N′-(4-fluorophenyl)cyclopropane-1,1-dicarboxamide]
10 to 100 | – | C[Si](C)(C)C#Cc1ccc2c(Oc3ccc(NC(=O)C4(C(=O)Nc5ccc(F)cc5)CC4)cc3)ccnc2c1 [Compound 63, 1-N′-(4-Fluorophenyl)-1-N-[4-[7-(2-trimethylsilylethynyl)quinolin-4-yl]oxyphenyl]cyclopropane-1,1-dicarboxamide]
100 to 1000 | – | O=C(Nc1ccc(F)cc1)C1(C(=O)Nc2ccc(Oc3ccnc4cc(-c5cnn[nH]5)ccc34)cc2)CC1 [Compound 65, 1-N′-(4-Fluorophenyl)-1-N-[4-[7-(1H-triazol-5-yl)quinolin-4-yl]oxyphenyl]cyclopropane-1,1-dicarboxamide]
100 to 1000 | – | CN(C(=O)C1(C(=O)Nc2ccc(Oc3ccnc4cc(-c5cnn(C)c5)ccc34)cc2)CC1)c1ccc(F)cc1 [Compound 82A, 1-N′-(4-Fluorophenyl)-1-N′-methyl-1-N-[4-[7-(1-methylpyrazol-4-yl)quinolin-4-yl]oxyphenyl]cyclopropane-1,1-dicarboxamide]
– | 10 to 100 | Cc1cc2c(Oc3cc(Cl)c(NC(=O)C4(C(=O)Nc5ccc(F)cc5)CC4)cc3F)ccnc2cc1-c1cnn(C)c1 [Compound 112, 1-N′-[2-Chloro-5-fluoro-4-[6-methyl-7-(1-methylpyrazol-4-yl)quinolin-4-yl]oxyphenyl]-1-N-(4-fluorophenyl)cyclopropane-1,1-dicarboxamide]
– | 10 to 100 | O=C(Nc1ccc(F)cc1)C1(C(=O)Nc2ccc(Oc3ccnc4cc(-c5ccc[n+]([O-])c5)ccc34)cc2)CC1 [Compound 109, 1-N′-(4-Fluorophenyl)-1-N-[4-[7-(1-oxidopyridin-1-ium-3-yl)quinolin-4-yl]oxyphenyl]cyclopropane-1,1-dicarboxamide]
– | 10 to 100 | O=C(Nc1ccc(F)cc1)C1(C(=O)Nc2ccc(Oc3ccnc4cc(-c5cnn(C(F)F)c5)ccc34)c(F)c2)CC1 [Compound 123, 1-N′-[4-[7-[1-(Difluoromethyl)pyrazol-4-yl]quinolin-4-yl]oxy-3-fluorophenyl]-1-N-(4-fluorophenyl)cyclopropane-1,1-dicarboxamide]
– | 10 to 100 | Cn1cc(-c2ccc3c(Oc4ccc(NC(=O)C5(C(=O)Nc6ccc(F)cc6)CC5)cc4)ccnc3c2)ccc1=O [Compound 119, 1-N′-(4-Fluorophenyl)-1-N-[4-[7-(1-methyl-6-oxopyridin-3-yl)quinolin-4-yl]oxyphenyl]cyclopropane-1,1-dicarboxamide]
